Tests used:
SARS-Cov-2 3CLpro = biological target: T1, SARS-Cov-2 3CLpro (Severe acute respiratory syndrome coronavirus 2, UniProt P0DTD1); assay: SARS-Cov-2 3CLpro and HRV3C duplex assay (SAMDI-MS): 3CLpro; type: biochemical; settings: 30 mins preincubation
T1 construct: 3CLpro and HRV3C was added using a Multidrop Combi

HRV3C = biological target: T2, HRV3C (Human rhinovirus 14, UniProt P03303); assay: SARS-Cov-2 3CLpro and HRV3C duplex assay (SAMDI-MS): HRV3C; type: biochemical; settings: 30 mins preincubation, read-out: HRV (IC50)
T2 construct: 3CLpro and HRV3C was added using a Multidrop Combi

[1] = tested on: human beta-coronavirus OC43; assay: OC43 coronavirus antiviral assay in HeLa cells; type: cell-based; settings: Betacoronavirus 1, 144 h, 6 days at 33° C., viral cytopathic effect, cell-titer-glo
Experimental: (§1) The human beta-coronavirus OC43 was purchased from ATCC (Manassas, VA) and propagated using HCT-8 human colorectal epithelial cells (ATCC). HeLa human cervical epithelial cells (ATCC) were used as susceptible host cell lines and were cultured using EMEM media, supplemented with 10% fetal bovine serum (FBS), 1% (v/v) penicillin/streptomycin (P/S), 1% (v/v) HEPES and 1% (v/v) cellgro Glutagro™ supplement (all Corning, Manassas, VA) at 37° C. For the OC43 antiviral assay, 1.5×10^4 HeLa cells per well were plated in 100 μL complete media in white 96-well plates with clear bottoms at 37° C. for up to 24 h to facilitate attachment and allow cells to recover from seeding stresses. Next day, the cell culture medium was removed. […] 100 μL of OC43 virus stock was diluted to a concentration known to produce optimal cytopathic effect, inducing 80-90% reduction in cell viability. 96-well plates were incubated for 6 (HeLa) days at 33° C.; each plate contains uninfected control wells as well as virus-infected wells that were not treated with compound. Cytotoxicity plates without the addition of OC43 virus were carried out in parallel. At the end of the incubation period, 100 μL cell culture supernatant was replaced with 100 μL cell-titer-glo reagent (Promega, Madison, WI) and incubated for at least 10 min at rt prior to measuring luminescence. Luminescence was measured on a Perkin Elmer (Waltham, MA) Envision plate reader. Antiviral % inhibition was calculated as follows: [(Compound treated cells infected sample)−(no compound infected control)]/[(Uninfected control)−(no compound infected control)]*100; Using GraphPad (San Diego, CA) prism software version 8.3.1, the antiviral dose-response plot was generated as a sigmoidal fit, log(inhibitor) vs response-variable slope (four parameters) model and the EC50 was calculated which is the predicted compound concentration corresponding to a 50% inhibition of the viral cytopathic effect.

[2] = Cytotoxicity in HeLa cells without OC43 virus; type: cell-based; settings: human, cell-titer-glo
Experimental: as §1

[3] = tested on: SARS-CoV-2 B.1.1.7 lineage; assay: microbe, parasite or virus in culture; type: cell-based; settings: Severe acute respiratory syndrome coronavirus 2, 96 h; read-out: A549-dual_ACE2_TMPRSS2 (EC50)
human cathepsin L = biological target: T3, human cathepsin L (Homo sapiens, UniProt P07711); assay: Cathepsin L assay; type: biochemical; settings: 10 pM human cathepsin L, substrate Z-FR-AMC 2 μM
T3 construct: purchased R&D Systems
Experimental: For the cathepsin L assay, 10 pM of human cathepsin L (R&D Systems; Minneapolis, MN) was preincubated for 30 mins with test compounds. Reactions were initiated by the addition of a peptide substrate Z-FR-AMC (final concentration 2 μM, Anaspec; Fremont, CA). Fluorescence was measured at 2-minute intervals for 30 mins using a 355/460 excitation/emission filter module on an Envision plate reader (Perkin Elmer; Waltham, MA). The IC50 values were calculated for each assay by fitting the curves using a four-parameter equation in GraphPad Prism.

in vitro = settings: human, A549-dual ACE2 TMPRSS2 cells without virus
SARS-CoV-2 = settings: cited from earlier work
3CLpro = 3CLpro (Severe acute respiratory syndrome coronavirus 2, UniProt P0DTD1); settings: cited from earlier work

T3 sequence (P07711 114-333): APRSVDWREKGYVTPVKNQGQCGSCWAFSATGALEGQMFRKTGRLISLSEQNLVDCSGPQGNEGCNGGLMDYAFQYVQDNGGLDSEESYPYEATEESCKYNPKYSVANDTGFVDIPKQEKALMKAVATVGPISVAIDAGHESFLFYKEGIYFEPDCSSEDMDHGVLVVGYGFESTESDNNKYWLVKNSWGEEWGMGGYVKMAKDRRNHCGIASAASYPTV
T2 sequence (P03303 1538-1719): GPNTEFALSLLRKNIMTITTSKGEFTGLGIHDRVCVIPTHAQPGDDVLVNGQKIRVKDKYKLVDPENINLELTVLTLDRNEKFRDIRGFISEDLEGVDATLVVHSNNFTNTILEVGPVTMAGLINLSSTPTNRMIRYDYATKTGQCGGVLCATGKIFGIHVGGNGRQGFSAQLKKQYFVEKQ

COC(=O)N[C@H](C(=O)N1C[C@@H]2[C@H]3C[C@@H]([C@@H]2[C@H]1C(=O)N[C@H](C#N)C[C@@H]1CCNC1=O)[C@H](F)C3)C(C)(C)C [Compound 2, methyl N-[(2S)-1-[(1S,2R,3S,6R,7S,9R)-3-{[(1S)-1-cyano-2-[(3S)-2-oxopyrrolidin-3-yl]ethyl]carbamoyl}-9-fluoro-4-azatricyclo[5.2.1.0^{2,6}]decan-4-yl]-3,3-dimethyl-1-oxobutan-2-yl]carbamate] showed an IC50 (SARS-Cov-2 3CLpro) of under 20 nM, an IC50 (HRV3C) of over 500 nM and an EC50 [1] of under 100 nM. For the same compound, the CC50 at 6 days [2] was over 100 µM, the EC50 [3] was 100 to 1000 nM and the IC50 (human cathepsin L) was at least 10 µM. For the same compound, the CC50 (in vitro) was over 1000 nM.

Compound COC(=O)N[C@H](C(=O)N1C[C@H]2[C@@H]([C@H]1C(=O)N[C@H](C#N)C[C@@H]1CCNC1=O)[C@H]1C=C[C@@H]2C1)C(C)(C)C [Compound 1, methyl ((S)-1-((1S,3aR,4S,7R,7aS)-1-(((S)-1-cyano-2-((S)-2-oxopyrrolidin-3-yl)ethyl)carbamoyl)-1,3,3a,4,7,7a-hexahydro-2H-4,7-methanoisoindol-2-yl)-3,3-dimethyl-1-oxobutan-2-yl)carbamate] has an IC50 (SARS-Cov-2 3CLpro) of under 20 nM, an IC50 (HRV3C) of over 500 nM and an EC50 [1] of under 100 nM. The CC50 at 6 days [2] was over 100 µM, the EC50 [3] was under 100 nM and the IC50 (human cathepsin L) was at least 10 µM. For the same compound, the CC50 (in vitro) was over 1000 nM.

For CN1CCN(C(=O)N[C@@H](Cc2ccccc2)C(=O)N[C@H](/C=C/S(=O)(=O)c2ccccc2)CCc2ccccc2)CC1 [Compound K117777], the “antiviral effect when TMPRSS2 was expressed” value (SARS-CoV-2; A549-ACE2 expressing TMPRSS2) is given as “abolished”, the “inhibition of SARS-CoV-2” value (SARS-CoV-2; VeroE6, A549-ACE2 and/or HeLa-ACE2) is given as “potent inhibition” and the “inhibitory effect on the 3CLpro” value (3CLpro) is given as “lacks an inhibitory effect”.

Compound CC(C)(C)[C@H](NC(=O)OC1CC1)C(=O)N1C[C@@H]2[C@H]3C[C@@H]([C@@H]2[C@H]1C(=O)N[C@H](C#N)C[C@@H]1CCNC1=O)[C@H](F)C3 [Compound 3, cyclopropyl ((S)-1-((1S,3aR,4S,6R,7S,7aR)-1-(((S)-1-cyano-2-((S)-2-oxopyrrolidin-3-yl)ethyl)carbamoyl)-6-fluorooctahydro-2H-4,7-methanoisoindol-2-yl)-3,3-dimethyl-1-oxobutan-2-yl)carbamate] has an IC50 (SARS-Cov-2 3CLpro) of under 20 nM, an IC50 (HRV3C) of over 500 nM and an EC50 [1] of under 100 nM. It also gave a CC50 at 6 days [2] of over 100 µM, an EC50 [3] of under 100 nM and an IC50 (human cathepsin L) of at least 10 µM. The CC50 (in vitro) was over 1000 nM.

Reference: patent publication US12630538B2, “Anti-viral compounds” (Aligos Therapeutics, Inc., priority 2022, dated 2026)
